Laboratory results from publication PMC9917443 (eLife, 2023).
“Also recorded” adds a separate entry of the source.

Legend:
[1] = system: mEPSCs in brain slices / cultured hippocampal neurons; settings: cultured hippocampal neurons APP17 250 nM, ref Rice et al., 2019; cited from earlier work
From the text: GBRs are composed of a GB1a or GB1b subunit with a GB2 subunit, which generates heterodimeric GB1a/2 and GB1b/2 receptors ([Pin and Bettler, 2016]). GB1a differs from GB1b by the presence of two N-terminal sushi domains (SD1/2). GB1a/2 and GB1b/2 receptors predominantly localize to pre- and postsynaptic sites, respectively ([Vigot et al., 2006]). APP and sAPP bind to SD1 of GB1a ([Schwenk et al., 2016]; [Dinamarca et al., 2019]; [Rice et al., 2019]). Synthetic APP peptides of 9 or 17 amino acid residues, termed APP9 and APP17, are sufficient for binding and inducing a stable conformation in SD ... || GB1a/2 receptors are abundant at axon terminals where they inhibit neurotransmitter release ([Vigot et al., 2006]). […] A GBR antagonist blocked the effect of APP17 on the mEPSC frequency, supporting a GBR-dependent mechanism.

[2] = system: GBR-activated K^+ currents in cultured hippocampal neurons; experiment: K^+ currents in cultured hippocampal neurons (patch-clamp); type: cell-based, mouse
Experimental: APP17 signaling through native GBRs may depend on protein-protein interactions that are not preserved in the membrane preparations used for the [^35S]GTPγS binding assay. Therefore, we tested whether APP17 influences GBR-mediated Gβγ signaling to K^+ channels in cultured hippocampal neurons using patch-clamp electrophysiology, which preserves the native environment of receptors ([Schuler et al., 2001]; [Vigot et al., 2006]). […] . Neuronal cultures and HEK293T cells were prepared as described ([Dinamarca et al., 2019]). Coverslips with hippocampal neurons (DIV 12–15) or HEK293T cells were transferred to a chamber containing a low-K^+ bath solution (in mM): 145 NaCl, 4 KCl, 5 HEPES, 5.5 D-glucose, 1 MgCl2, and 1.8 CaCl2 (pH 7.4 adjusted with NaOH). Recordings were performed at room temperature using borosilicate pipettes of 3–5 MΩ resistance tips, filled with K-gluconate-based pipette solution (in mM): 150 K-gluconate, 1.1 EGTA, 10 HEPES, 10 Tris-phosphocreatine, 0.3 NaGTP, and 4 MgATP (pH 7.2 adjusted with KOH). Upon achieving whole-cell access, cells were held in voltage-clamp mode at −70 mV (with no correction for liquid junction potential) and baclofen-induced K^+ currents were induced in a high-K^+ bath solution (in mM): 120 NaCl, 25 KCl, 5 HEPES, 5.5 D-glucose, 1 MgCl2, and 1.8 CaCl2 (pH 7.4 adjusted with NaOH). […] Schaffer collaterals were stimulated at 0.1 Hz with brief current pulses via bipolar Pt/Ir wires. Evoked EPSCs were recorded at –60 mV with a Cs^+-based intracellular solution. Baclofen and peptides were bath applied in standard ACSF at room temperature. We recorded mEPSCs in primary neuronal cultures established from embryonic (E15–17) murine hippocampus at DIV13–16 in the presence of 0.5 μM TTX at room temperature ([Dinamarca et al., 2019]). APP17 (250 nM) and (R)-baclofen (30 μM) were applied via superfusion. Template matching with pClamp 10 software (Molecular Devices) was used to detect individual mEPSCs.

[3] = system: GB1a/2 receptors in HEK293T cells; experiment: APP17-TMR binding / displacement at GB1a/2 receptors in HEK293T cells; settings: 10 μM peptide
Experimental: Transfected HEK293T cells expressing Flag-GB1a and Flag-GB2 were seeded into 96-well microplates (Greiner Bio-One, Kremsmünster, Austria) at 50,000 cells/well. After 18 hr, peptides were mixed with conditioned medium at the following final concentrations: APP17-TMR (1 µM) with either APP17 (10 µM), sc-APP17 (10 µM), or PBS (vehicle); sc-APP17-TMR (1 µM) in PBS was used as a negative control. After removal of medium, peptide mixes were added to the wells and cells incubated in the dark for 1 hr at room temperature. After removal of the peptides, PBS with MgCl2 and CaCl2 (Sigma-Aldrich) was added to the wells. TMR fluorescence was monitored with a Spark microplate reader (Tecan Group, Männerdorf, Switzerland) using a monochromator (Excitation 544 nm, […] bandwidth; detection […], 25 nm bandwidth). TMR fluorescence was determined after subtraction of the sc-APP17-TMR fluorescence measured at HEK293T cells transfected with pCI plasmid.

For Ac-DDSDVWWGGADTDYADG-NH2 [APP17], which “mEPSC frequency (in words)” value [1] is on record?
The value was “reduce the frequency of mEPSCs; also recorded: reduced the frequency of miniature excitatory postsynaptic currents (mEPSCs) in brain slices”.

And the “K+ current” value ([2]; 5 µM APP17, column graph (left), single values)?
Its value is -1.055.

And the “baclofen-induced K^+ currents in presence of peptide (in words)” value ([2]; 5 µM peptide + 5 µM baclofen)?
The value was “elicited currents of similar amplitudes as baclofen alone”.

And the “K^+ currents evoked by compound alone (in words)” value ([2]; 5 µM, -70 mV)?
Its value is “did not elicit any currents”.

And the “displacement of 1 μM APP17-TMR from GB1a/2 receptors (in words)” value [3]?
Its value is “displaced 1 μM APP17-TMR from GB1a/2 receptors”.
